Test results: ChEMBL document CHEMBL5291721, “A preclinical secondary pharmacology resource illuminates target-adverse drug reaction associations of marketed drugs” (Nat Commun, 2023)

Tests used:
[1] = molecular target: Beta-2 adrenergic receptor (Homo sapiens, UniProt P07550)
[2] = molecular target: Kappa-type opioid receptor (Homo sapiens, UniProt P41145)
[3] = molecular target: T1, Gastrin/cholecystokinin type B receptor (Homo sapiens, UniProt P32239)
T1 sequence (P32239 whole entry): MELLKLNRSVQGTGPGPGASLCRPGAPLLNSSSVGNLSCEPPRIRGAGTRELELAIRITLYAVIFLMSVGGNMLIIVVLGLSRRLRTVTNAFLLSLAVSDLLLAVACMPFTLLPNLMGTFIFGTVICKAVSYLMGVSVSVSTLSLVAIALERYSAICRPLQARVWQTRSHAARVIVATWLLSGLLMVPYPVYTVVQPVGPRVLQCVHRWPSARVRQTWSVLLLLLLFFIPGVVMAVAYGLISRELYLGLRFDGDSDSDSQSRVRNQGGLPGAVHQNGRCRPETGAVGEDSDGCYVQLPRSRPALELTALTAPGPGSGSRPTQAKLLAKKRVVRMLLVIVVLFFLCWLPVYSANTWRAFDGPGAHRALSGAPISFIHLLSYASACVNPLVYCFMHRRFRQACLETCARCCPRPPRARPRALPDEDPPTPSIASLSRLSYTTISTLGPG

Vasopressin V2 receptor = Vasopressin V2 receptor (Homo sapiens, UniProt P30518)
Vasopressin V2 receptor, sequence (P30518 whole entry): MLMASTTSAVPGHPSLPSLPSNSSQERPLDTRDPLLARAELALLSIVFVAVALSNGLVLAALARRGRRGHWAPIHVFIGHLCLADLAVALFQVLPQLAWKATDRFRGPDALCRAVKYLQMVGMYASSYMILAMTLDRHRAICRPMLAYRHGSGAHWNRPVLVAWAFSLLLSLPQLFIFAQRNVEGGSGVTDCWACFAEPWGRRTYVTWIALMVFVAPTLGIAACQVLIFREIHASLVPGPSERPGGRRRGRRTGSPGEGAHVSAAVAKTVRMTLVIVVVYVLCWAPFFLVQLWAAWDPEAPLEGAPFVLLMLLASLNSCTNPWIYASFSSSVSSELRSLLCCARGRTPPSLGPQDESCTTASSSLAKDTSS

[4] = molecular target: T2, Alpha-1A adrenergic receptor (Homo sapiens, UniProt P35348); format: functional, cell-based
T2 sequence (P35348 whole entry): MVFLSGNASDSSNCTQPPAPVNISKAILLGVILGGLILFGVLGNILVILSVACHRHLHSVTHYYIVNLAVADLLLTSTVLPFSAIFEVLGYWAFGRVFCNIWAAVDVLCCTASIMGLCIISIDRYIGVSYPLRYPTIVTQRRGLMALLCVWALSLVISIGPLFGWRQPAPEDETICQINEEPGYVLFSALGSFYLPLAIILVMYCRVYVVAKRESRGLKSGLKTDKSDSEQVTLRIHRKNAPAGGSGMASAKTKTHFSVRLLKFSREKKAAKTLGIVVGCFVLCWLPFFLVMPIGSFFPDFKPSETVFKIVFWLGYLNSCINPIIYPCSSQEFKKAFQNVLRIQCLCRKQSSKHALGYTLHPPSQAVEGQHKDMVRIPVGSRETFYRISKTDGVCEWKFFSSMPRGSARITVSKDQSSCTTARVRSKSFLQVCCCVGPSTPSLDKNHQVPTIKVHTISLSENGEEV

B2 bradykinin receptor = molecular target: T3, B2 bradykinin receptor (Homo sapiens, UniProt P30411)
T3 sequence (P30411 whole entry): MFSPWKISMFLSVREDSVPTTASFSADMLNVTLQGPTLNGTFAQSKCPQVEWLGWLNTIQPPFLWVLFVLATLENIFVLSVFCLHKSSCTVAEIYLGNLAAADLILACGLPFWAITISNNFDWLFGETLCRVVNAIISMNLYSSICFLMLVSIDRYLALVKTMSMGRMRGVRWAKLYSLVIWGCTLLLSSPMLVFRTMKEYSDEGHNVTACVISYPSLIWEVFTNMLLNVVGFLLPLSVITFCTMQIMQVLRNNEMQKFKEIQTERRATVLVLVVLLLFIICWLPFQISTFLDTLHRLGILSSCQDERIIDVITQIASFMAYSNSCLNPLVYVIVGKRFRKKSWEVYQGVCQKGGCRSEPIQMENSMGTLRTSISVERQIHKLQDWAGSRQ

[5] = molecular target: T4, Alpha-2B adrenergic receptor (Homo sapiens, UniProt P18089)
T4 sequence (P18089 whole entry): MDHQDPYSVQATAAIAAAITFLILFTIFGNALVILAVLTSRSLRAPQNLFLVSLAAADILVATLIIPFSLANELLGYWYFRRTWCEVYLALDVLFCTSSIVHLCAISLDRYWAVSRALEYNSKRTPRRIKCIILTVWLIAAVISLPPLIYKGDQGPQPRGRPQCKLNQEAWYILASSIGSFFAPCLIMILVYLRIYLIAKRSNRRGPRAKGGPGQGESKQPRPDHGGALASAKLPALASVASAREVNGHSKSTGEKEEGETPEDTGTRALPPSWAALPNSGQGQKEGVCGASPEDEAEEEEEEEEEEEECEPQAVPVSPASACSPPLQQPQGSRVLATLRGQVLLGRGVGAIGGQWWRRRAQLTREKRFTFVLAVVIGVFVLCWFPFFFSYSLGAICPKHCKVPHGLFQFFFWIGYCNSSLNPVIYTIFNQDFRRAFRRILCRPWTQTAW

Cannabinoid receptor 1 = Cannabinoid receptor 1 (Homo sapiens, UniProt P21554); format: functional, cell-based
Cannabinoid receptor 1, sequence (P21554 whole entry): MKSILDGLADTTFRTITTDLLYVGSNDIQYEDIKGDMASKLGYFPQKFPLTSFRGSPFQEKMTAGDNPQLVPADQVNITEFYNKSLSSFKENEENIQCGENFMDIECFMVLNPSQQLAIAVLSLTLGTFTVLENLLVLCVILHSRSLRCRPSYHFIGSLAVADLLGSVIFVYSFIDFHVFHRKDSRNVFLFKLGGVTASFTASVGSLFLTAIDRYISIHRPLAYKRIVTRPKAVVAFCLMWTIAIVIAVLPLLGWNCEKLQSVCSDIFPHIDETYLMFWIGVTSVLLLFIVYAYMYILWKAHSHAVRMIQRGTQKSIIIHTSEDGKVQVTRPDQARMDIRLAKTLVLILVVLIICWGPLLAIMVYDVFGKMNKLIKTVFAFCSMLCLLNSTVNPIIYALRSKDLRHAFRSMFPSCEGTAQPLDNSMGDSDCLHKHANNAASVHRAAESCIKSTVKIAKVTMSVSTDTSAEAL

[6] = molecular target: Vascular endothelial growth factor receptor 2 (Homo sapiens, UniProt P35968); format: functional
Vascular endothelial growth factor receptor 2, sequence (P35968 whole entry): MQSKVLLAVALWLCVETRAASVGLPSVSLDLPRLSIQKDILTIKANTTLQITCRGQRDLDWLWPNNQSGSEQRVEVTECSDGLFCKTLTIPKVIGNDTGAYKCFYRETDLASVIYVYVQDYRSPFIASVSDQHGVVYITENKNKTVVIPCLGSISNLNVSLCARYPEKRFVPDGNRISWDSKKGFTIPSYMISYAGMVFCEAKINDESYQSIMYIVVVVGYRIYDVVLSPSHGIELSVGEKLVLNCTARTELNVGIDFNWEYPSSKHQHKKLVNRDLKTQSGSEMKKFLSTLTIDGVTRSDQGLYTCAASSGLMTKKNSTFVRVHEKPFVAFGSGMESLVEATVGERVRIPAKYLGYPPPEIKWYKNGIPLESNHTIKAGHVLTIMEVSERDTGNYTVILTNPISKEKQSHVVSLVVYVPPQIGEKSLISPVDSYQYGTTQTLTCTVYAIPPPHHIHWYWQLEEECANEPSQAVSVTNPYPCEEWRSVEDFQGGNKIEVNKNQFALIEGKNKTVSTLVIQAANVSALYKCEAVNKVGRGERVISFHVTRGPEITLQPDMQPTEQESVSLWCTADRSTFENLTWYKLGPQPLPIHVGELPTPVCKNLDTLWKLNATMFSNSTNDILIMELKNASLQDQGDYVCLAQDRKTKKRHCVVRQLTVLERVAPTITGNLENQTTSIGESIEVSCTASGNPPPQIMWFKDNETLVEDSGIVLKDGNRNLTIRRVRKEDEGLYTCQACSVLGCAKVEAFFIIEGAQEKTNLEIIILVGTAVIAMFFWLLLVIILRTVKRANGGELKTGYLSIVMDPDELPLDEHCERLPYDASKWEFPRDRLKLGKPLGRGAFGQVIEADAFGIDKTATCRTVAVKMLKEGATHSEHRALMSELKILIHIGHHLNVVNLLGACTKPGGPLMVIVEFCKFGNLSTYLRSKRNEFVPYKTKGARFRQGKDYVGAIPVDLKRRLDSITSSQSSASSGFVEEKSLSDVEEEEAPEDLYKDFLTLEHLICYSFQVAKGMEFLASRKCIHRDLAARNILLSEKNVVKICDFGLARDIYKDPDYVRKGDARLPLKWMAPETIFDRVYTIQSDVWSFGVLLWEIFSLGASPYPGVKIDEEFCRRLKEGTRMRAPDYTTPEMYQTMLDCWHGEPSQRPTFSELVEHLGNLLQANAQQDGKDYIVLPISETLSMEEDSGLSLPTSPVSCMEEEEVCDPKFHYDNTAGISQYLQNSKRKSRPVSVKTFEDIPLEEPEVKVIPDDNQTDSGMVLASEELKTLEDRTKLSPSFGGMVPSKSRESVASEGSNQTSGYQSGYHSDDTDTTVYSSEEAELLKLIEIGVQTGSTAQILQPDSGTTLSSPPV

Thromboxane A2 receptor = molecular target: T5, Thromboxane A2 receptor (Homo sapiens, UniProt P21731); format: functional, cell-based
T5 sequence (P21731 whole entry): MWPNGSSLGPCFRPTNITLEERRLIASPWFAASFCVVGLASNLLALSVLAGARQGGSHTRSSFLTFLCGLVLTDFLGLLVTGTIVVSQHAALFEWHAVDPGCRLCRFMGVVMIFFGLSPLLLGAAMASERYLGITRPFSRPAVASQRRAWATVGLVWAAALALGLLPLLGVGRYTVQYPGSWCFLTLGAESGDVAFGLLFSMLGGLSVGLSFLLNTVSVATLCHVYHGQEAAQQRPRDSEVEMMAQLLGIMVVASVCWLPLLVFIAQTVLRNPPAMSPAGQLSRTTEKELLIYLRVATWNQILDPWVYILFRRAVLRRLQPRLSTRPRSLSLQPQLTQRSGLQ

[7] = molecular target: T6, Alpha-2A adrenergic receptor (Homo sapiens, UniProt P08913)
T6 sequence (P08913 whole entry): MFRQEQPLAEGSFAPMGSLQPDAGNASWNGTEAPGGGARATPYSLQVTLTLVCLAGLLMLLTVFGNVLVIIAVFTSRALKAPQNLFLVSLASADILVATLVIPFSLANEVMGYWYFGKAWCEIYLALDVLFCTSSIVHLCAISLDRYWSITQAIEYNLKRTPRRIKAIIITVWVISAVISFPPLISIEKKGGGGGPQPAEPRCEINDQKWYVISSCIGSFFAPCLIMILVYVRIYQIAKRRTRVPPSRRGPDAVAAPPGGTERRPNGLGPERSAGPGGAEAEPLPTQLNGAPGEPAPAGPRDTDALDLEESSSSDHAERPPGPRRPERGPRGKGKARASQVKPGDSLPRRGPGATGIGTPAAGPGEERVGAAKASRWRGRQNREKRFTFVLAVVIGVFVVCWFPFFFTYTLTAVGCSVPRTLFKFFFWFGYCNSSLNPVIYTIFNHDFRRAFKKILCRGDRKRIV
Also: assay procedure not described here.

Kappa-type opioid receptor, sequence (P41145 whole entry): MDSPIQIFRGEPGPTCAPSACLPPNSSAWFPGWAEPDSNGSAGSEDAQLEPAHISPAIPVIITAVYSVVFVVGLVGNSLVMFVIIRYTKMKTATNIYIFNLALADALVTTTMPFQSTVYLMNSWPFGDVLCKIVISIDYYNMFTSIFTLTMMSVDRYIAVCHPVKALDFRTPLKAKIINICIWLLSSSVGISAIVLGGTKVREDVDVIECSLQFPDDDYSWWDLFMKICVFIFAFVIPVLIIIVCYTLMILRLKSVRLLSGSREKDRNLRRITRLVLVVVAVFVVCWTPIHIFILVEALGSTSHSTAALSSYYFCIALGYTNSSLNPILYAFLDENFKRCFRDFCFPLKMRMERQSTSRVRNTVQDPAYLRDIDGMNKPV
Beta-2 adrenergic receptor, sequence (P07550 whole entry): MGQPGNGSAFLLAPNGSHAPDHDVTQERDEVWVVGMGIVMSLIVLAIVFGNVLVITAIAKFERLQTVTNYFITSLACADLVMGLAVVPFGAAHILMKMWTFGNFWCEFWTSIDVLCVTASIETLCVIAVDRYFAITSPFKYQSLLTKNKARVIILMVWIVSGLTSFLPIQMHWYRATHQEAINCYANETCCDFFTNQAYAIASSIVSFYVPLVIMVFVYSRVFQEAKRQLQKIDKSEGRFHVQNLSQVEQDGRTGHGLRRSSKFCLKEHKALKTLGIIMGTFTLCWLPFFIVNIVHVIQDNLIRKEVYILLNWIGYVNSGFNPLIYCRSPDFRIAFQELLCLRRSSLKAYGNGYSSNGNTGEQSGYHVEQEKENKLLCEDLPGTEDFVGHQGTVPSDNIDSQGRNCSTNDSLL

COc1ccccc1OCC(O)CN1CCN(CC(=O)Nc2c(C)cccc2C)CC1 (stereo not drawn) [RANOLAZINE]
AC50 [1]: 5.7 µM | AC50 [2]: > 30 µM | AC50 [3]: > 30 µM | AC50 (Vasopressin V2 receptor): > 30 µM | AC50 [4]: 1.7 µM | AC50 (B2 bradykinin receptor): > 30 µM | AC50 [5]: 17 µM

Nc1nc(NC2CC2)c2ncn([C@H]3C=C[C@@H](CO)C3)c2n1 [ABACAVIR]
AC50 [2]: > 30 µM | AC50 [3]: > 30 µM | AC50 (Cannabinoid receptor 1): > 30 µM | AC50 (Vasopressin V2 receptor): > 30 µM | AC50 [4]: > 30 µM | AC50 (B2 bradykinin receptor): > 30 µM | AC50 [5]: > 30 µM

O=C1Nc2ccc(Cl)cc2[C@@](C#CC2CC2)(C(F)(F)F)O1 [EFAVIRENZ]
AC50 [1]: > 30 µM | AC50 [3]: 45 µM | AC50 (Cannabinoid receptor 1): > 30 µM | AC50 (Vasopressin V2 receptor): > 30 µM | AC50 [4]: > 30 µM | AC50 (B2 bradykinin receptor): > 30 µM | AC50 [5]: > 30 µM

C[C@]12CC[C@@H]3c4ccc(O)cc4CC[C@H]3[C@@H]1C[C@@H](O)[C@@H]2O [ESTRIOL]
AC50 [6]: > 30 µM | AC50 (Thromboxane A2 receptor): > 30 µM | AC50 [7]: > 30 µM

Cc1cn([C@H]2C[C@H](N=[N+]=[N-])[C@@H](CO)O2)c(=O)[nH]c1=O [ZIDOVUDINE]
AC50 [6]: > 30 µM | AC50 [1]: > 10 µM | AC50 [2]: > 10 µM | AC50 (Thromboxane A2 receptor): > 30 µM | AC50 [3]: > 30 µM | AC50 [7]: > 30 µM | AC50 (Cannabinoid receptor 1): > 30 µM | AC50 (Vasopressin V2 receptor): > 30 µM | AC50 [4]: > 30 µM | AC50 (B2 bradykinin receptor): > 30 µM

Cc1cccc(Nc2ccccc2C(=O)O)c1C [MEFENAMIC ACID]
AC50 [6]: > 30 µM | AC50 [1]: > 10 µM | AC50 [2]: > 10 µM | AC50 (Thromboxane A2 receptor): > 30 µM | AC50 [7]: > 30 µM | AC50 (Vasopressin V2 receptor): > 10 µM | AC50 (B2 bradykinin receptor): > 10 µM

CN1C(C(=O)Nc2ccccn2)=C(O)c2sc(Cl)cc2S1(=O)=O [LORNOXICAM]
AC50 [1]: > 30 µM | AC50 [2]: > 10 µM | AC50 [3]: > 30 µM | AC50 (Cannabinoid receptor 1): > 30 µM | AC50 (Vasopressin V2 receptor): > 30 µM | AC50 [4]: > 30 µM | AC50 (B2 bradykinin receptor): > 30 µM | AC50 [5]: > 10 µM

O=C(O[C@H]1C[C@H]2CC[C@@H](C1)[N+]21CCCC1)C(O)(c1ccccc1)c1ccccc1 [TROSPIUM]
AC50 [1]: > 30 µM | AC50 [2]: > 30 µM | AC50 [3]: > 30 µM | AC50 (Vasopressin V2 receptor): > 30 µM | AC50 [4]: > 30 µM | AC50 (B2 bradykinin receptor): > 30 µM | AC50 [5]: > 30 µM

Cc1c(C(=O)NN2CCCCC2)nn(-c2ccc(Cl)cc2Cl)c1-c1ccc(Cl)cc1 [RIMONABANT]
AC50 [1]: > 10 µM | AC50 [3]: 29.6 µM | AC50 (Vasopressin V2 receptor): > 30 µM | AC50 [4]: 11 µM | AC50 (B2 bradykinin receptor): > 30 µM | AC50 [5]: 23 µM

Cn1nnc2c(C(N)=O)ncn2c1=O [TEMOZOLOMIDE]
AC50 [1]: > 10 µM | AC50 [2]: > 10 µM | AC50 [3]: > 30 µM | AC50 (Cannabinoid receptor 1): > 30 µM | AC50 (Vasopressin V2 receptor): > 30 µM | AC50 [4]: > 30 µM | AC50 (B2 bradykinin receptor): > 30 µM | AC50 [5]: > 30 µM

COCc1c(C(C)C)nc(C(C)C)c(/C=C/[C@@H](O)C[C@@H](O)CC(=O)O)c1-c1ccc(F)cc1 [CERIVASTATIN]
AC50 [6]: > 30 µM | AC50 (Thromboxane A2 receptor): > 30 µM | AC50 [7]: > 30 µM
